Test results taken from patent publication US8614201B2 (Janssen Pharmaceutica NV, priority 2009, dated 2013).

Target: Human TRPA1 (Homo sapiens, UniProt O75762)
Assay: Alternative TRPA1 Ca2+ fluorometry assay (hTRPA1/TREx-HEK293 cells, Fluo-4, FDSS 6000)
Assay type: cell-based
Set-up: expressed in transfected cells
Details: Fluo-4-AM, agonist 6,11-dihydro-5H-dibenzo[b,e]azepine-10-carboxylic acid methyl ester 25 nM, procedure used for Examples 184, 190 to 192, 194 to 316
Experimental: In alternative embodiments, the assay was performed using the following procedure for Examples 184, 190 to 192, and 194 to 316:
The human TRPA1 gene was cloned into the pT-Rex-Dest30 inducible vector and stably transfected in T-Rex™-293 cells (Invitrogen, Merelbeke, Belgium). This tetracycline inducible hTRPA1 expression system was used in order to prevent CA^2+ overload in the cultured cells due to sustained TRPA1 expression. hTRPA1/TREx-HEK293 cells (referred to as jTRPA1 cells in the following text) were maintained under standard sterile cell culture conditions. The culture medium for the jTRPA1-HEK cells was DMEN (Gibco BRL, Invitrogen, Merelbeke, Belgium) supplemented with 5 g/l gengticin (Gibco), 5 mL/l blasticidin (Invitorgen), 14.6 g/l L-Glutamine (200 mMl; Gibco), 5 g/l penicillin/streptomycin (5.10-6 IU/I, Gibco), 5.5 g/l pyruvic acid (Gibco) and 10% foetal calf serum (Hyclone, Logan Utah, USA).
For Ca^2+ fluorometry experiments, hTRPA1-HEK cells were resuspended in HBSS seeding medium: HBSS (with CaCl2 and MgCl2: Gibco) supplemented with 14.6 g/l L-Glutamine (200 mM; Gibco), 5 g/l penicillin/streptomycin (5.10-6 IU/l. Gibco), 5.5 g/l pyruvic acid (Gibco) and 10% foetal calf serum (heat inactivated for 30 minutes at 56° C.; Hyclone, Logan Utah, USA). The cells were seeded in poly-D-lysine-coated 384-well round bottom polypropylene plates (Costar Corning, Data Packaging, Cambridge Mass., USA) at 12000 cells/well. Fifty ng/ml tetracycline was added to induce the hTRPA1 expression 24 h before the experiment.
The cells were loaded with 5 mg/l Fluo-4-AM (Molecular Probes, Invitorgen, Merelbeke, Belgium) dissolved in HBSS seeding medium supplemented with 0.7 g/l Probenecid (Sigma) and incubated for 1 h at 37° C. and subsequently at 20° C. for 1 to 2 h. The fluorescence was measured in the FDSS 6000 imaging based plate reader (Hamamutsu Photonics K.K., Hamamutsu City, Japan). The excitation wavelength was 488 nm and the emission wavelength 540 nm. After a control period of 12 seconds the inventive compounds were added and the Ca^2+ signal was measured within 14 minutes after application. Finally, a TRPA1 agonist, 6,11-dihydro-5H-dibenzo[b,e]azepine-10-carboxylic acid methyl ester, was added at a final concentration of 25 nM. The emission ratio was calculated by dividing the emission signal (Em540) by the first EM540 signal of the control period to compensate for the background fluorescence. […] For intracellular Ca^2+ measurements, a compound stock solution (10 to 100 mM) was further diluted in DMSO in order to obtain a final 1% DMSO concentration in the extracellular solution.

Human TRPA1, sequence (O75762 whole entry): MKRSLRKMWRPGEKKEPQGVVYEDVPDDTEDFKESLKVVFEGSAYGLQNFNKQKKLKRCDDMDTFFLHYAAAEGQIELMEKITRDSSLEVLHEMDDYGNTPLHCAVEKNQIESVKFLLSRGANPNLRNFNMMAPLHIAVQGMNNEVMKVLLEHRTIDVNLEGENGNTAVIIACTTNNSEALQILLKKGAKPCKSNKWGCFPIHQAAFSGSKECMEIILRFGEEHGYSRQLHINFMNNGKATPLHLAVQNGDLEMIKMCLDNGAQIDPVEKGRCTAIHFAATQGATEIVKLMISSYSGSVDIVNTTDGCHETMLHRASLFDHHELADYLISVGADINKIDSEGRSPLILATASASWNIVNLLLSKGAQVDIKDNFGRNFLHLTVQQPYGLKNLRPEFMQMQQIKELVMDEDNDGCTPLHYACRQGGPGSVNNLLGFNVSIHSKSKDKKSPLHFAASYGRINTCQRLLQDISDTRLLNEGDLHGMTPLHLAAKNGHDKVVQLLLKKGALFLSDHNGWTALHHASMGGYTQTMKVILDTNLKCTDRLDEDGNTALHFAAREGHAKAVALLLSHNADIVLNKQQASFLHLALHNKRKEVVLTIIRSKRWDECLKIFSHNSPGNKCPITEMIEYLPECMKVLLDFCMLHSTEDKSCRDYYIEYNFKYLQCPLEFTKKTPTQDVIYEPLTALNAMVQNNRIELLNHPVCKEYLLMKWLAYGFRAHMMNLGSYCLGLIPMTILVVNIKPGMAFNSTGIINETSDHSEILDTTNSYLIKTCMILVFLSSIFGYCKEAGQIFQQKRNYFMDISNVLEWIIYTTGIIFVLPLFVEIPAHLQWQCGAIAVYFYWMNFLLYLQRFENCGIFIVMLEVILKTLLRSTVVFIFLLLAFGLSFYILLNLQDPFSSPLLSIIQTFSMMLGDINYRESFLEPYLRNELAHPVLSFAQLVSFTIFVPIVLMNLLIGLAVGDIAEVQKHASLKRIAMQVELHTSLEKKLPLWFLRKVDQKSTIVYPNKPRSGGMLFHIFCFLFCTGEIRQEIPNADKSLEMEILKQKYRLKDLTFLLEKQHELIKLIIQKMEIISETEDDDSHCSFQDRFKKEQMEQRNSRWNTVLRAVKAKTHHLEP

IC50 [nM]	SMILES
> 10000	CN(C)c1cccc(-c2cc(CNC(=O)[C@@H]3CCCN3S(=O)(=O)c3ccc(F)cc3)nc(N3CCN(c4ccccc4F)CC3)n2)c1 [Example 237, 1-(4-Fluoro-benzenesulfonyl)-pyrrolidine-2S-carboxylic acid {6-(3-dimethylamino-phenyl)-2-[4-(2-fluoro-phenyl)-piperazin-1-yl]-pyrimidin-4-ylmethyl}-amide]
~1510	CC(Nc1nc(CNC(=O)[C@@H]2CCCN2S(=O)(=O)c2ccc(F)cc2)cc(-c2ccc3c(c2)OCO3)n1)c1ccccc1 (stereo partly drawn) [Example 311, 1-(4-Fluoro-benzenesulfonyl)-pyrrolidine-2S-carboxylic acid [6-benzo[1,3]dioxol-5-yl-2-(1-phenyl-ethylamino)-pyrimidin-4-ylmethyl]-amide]
~676	O=C(NCc1cc(-c2ccc(Cl)c(Cl)c2)nc(N2CCN(c3ccccc3F)CC2)n1)[C@@H]1CCCN1S(=O)(=O)c1ccc(F)cc1 [Example 248, 1-(4-Fluoro-benzenesulfonyl)-pyrrolidine-2S-carboxylic acid {6-(3,4-dichloro-phenyl)-2-[4-(2-fluoro-phenyl)-piperazin-1-yl]-pyrimidin-4-ylmethyl}-amide]
617	O=C(NCc1cc(-c2ccc(C(F)(F)F)cc2)nc(NCCc2ccc(Cl)cc2Cl)n1)[C@@H]1CCCN1S(=O)(=O)c1ccc(F)cc1 [Example 195, 1-(4-Fluoro-benzenesulfonyl)-pyrrolidine-2S-carboxylic acid [2-[2-(2,4-dichloro-phenyl)-ethylamino]-6-(4-trifluoromethyl-phenyl)-pyrimidin-4-ylmethyl]-amide]
> 10000	O=C(NCc1cc(-c2ccc(C(F)(F)F)cc2)nc(N2CCN(c3ccccc3F)CC2)n1)[C@@H]1CCCN1S(=O)(=O)c1cccc(Cl)c1 [Example 254, 1-(3-Chloro-benzenesulfonyl)-pyrrolidine-2S-carboxylic acid [2-[4-(2-fluoro-phenyl)-piperazin-1-yl]-6-(4-trifluoromethyl-phenyl)-pyrimidin-4-ylmethyl]-amide]
> 10000	O=C(NCc1cc(-c2ccc3c(c2)OCO3)nc(Nc2cccc(Cl)c2)n1)[C@@H]1CCCN1S(=O)(=O)c1ccc(F)cc1 [Example 223, 1-(4-Fluoro-benzenesulfonyl)-pyrrolidine-2S-carboxylic acid [6-benzo[1,3]dioxol-5-yl-2-(3-chloro-phenylamino)-pyrimidin-4-ylmethyl]-amide]
2040	O=C(NCc1cc(-c2ccc(Br)cc2)nc(NCCc2ccc(Cl)cc2Cl)n1)[C@@H]1CCCN1S(=O)(=O)c1ccc(F)cc1 [Example 221, 1-(4-Fluoro-benzenesulfonyl)-pyrrolidine-2S-carboxylic acid {6-(4-bromo-phenyl)-2-[2-(2,4-dichloro-phenyl)-ethylamino]-pyrimidin-4-ylmethyl}-amide]
2400	O=C(NCc1cc(-c2ccc(Br)cc2)nc(N2CCC(Cc3ccccc3)CC2)n1)[C@@H]1CCCN1S(=O)(=O)c1ccc(F)cc1 [Example 213, 1-(4-Fluoro-benzenesulfonyl)-pyrrolidine-2S-carboxylic acid [2-(4-benzyl-piperidin-1-yl)-6-(4-bromo-phenyl)-pyrimidin-4-ylmethyl]-amide]
7940	O=C(NCc1cc(-c2ccc(C(F)(F)F)cc2)nc(N2CCN(c3ccccc3F)CC2)n1)[C@@H]1CCCN1S(=O)(=O)c1ccc(F)cc1F [Example 267, 1-(2,4-Difluoro-benzenesulfonyl)-pyrrolidine-2S-carboxylic acid [2-[4-(2-fluoro-phenyl)-piperazin-1-yl]-6-(4-trifluoromethyl-phenyl)-pyrimidin-4-ylmethyl]-amide]
~1320	CN1CCN(c2nc(CNC(=O)[C@@H]3CCCN3S(=O)(=O)c3ccc(F)cc3)cc(-c3ccc(C(F)(F)F)cc3)n2)CC1 [Example 314, 1-(4-Fluoro-benzenesulfonyl)-pyrrolidine-2-carboxylic acid [2-(4-methyl-piperazin-1-yl)-6-(4-trifluoromethyl-phenyl)-pyrimidin-4-ylmethyl]-amide]
295	O=C(NCc1cc(-c2ccc(C(F)(F)F)cc2)nc(NCCc2cccnc2)n1)[C@@H]1CCCN1S(=O)(=O)c1ccc(F)cc1 [Example 312, 1-(4-Fluoro-benzenesulfonyl)-pyrrolidine-2S-carboxylic acid [2-(2-pyridin-3-yl-ethylamino)-6-(4-trifluoromethyl-phenyl)-pyrimidin-4-ylmethyl]-amide]
5490	O=C(NCc1cc(-c2ccc(C(F)(F)F)cc2)nc(N2CCN(c3ccccc3F)CC2)n1)[C@@H]1CCCN1S(=O)(=O)c1cc(F)cc(F)c1 [Example 281, 1-(3,5-Difluoro-benzenesulfonyl)-pyrrolidine-2S-carboxylic acid [2-[4-(2-fluoro-phenyl)-piperazin-1-yl]-6-(4-trifluoromethyl-phenyl)-pyrimidin-4-ylmethyl]-amide]
~4790	CN1CCCC1CCNc1nc(CNC(=O)[C@@H]2CCCN2S(=O)(=O)c2ccc(F)cc2)cc(-c2ccc(C(F)(F)F)cc2)n1 (stereo partly drawn) [Example 196, 1-(4-Fluoro-benzenesulfonyl)-pyrrolidine-2S-carboxylic acid [2-[2-(1-methyl-pyrrolidin-2(R,S)-yl)-ethylamino]-6-(4-trifluoromethyl-phenyl)-pyrimidin-4-ylmethyl]-amide]
> 10000	Cc1cccc(S(=O)(=O)N2CCC[C@H]2C(=O)NCc2cc(-c3ccc(C(F)(F)F)cc3)nc(N3CCN(c4ccccc4F)CC3)n2)c1 [Example 271, 1-(Toluene-3-sulfonyl)-pyrrolidine-2S-carboxylic acid [2-[4-(2-fluoro-phenyl)-piperazin-1-yl]-6-(4-trifluoromethyl-phenyl)-pyrimidin-4-ylmethyl]-amide]
3550	O=C(NCc1cc(-c2ccc(C(F)(F)F)cc2)nc(N2CCN(c3ccccc3F)CC2)n1)[C@@H]1CCCN1S(=O)(=O)c1ccc(F)c(Cl)c1 [Example 259, 1-(3-Chloro-4-fluoro-benzenesulfonyl)-pyrrolidine-2S-carboxylic acid [2-[4-(2-fluoro-phenyl)-piperazin-1-yl]-6-(4-trifluoromethyl-phenyl)-pyrimidin-4-ylmethyl]-amide]
5010	O=C(NCc1cc(-c2cccc(Cl)c2)nc(N2CCN(c3ccccc3F)CC2)n1)[C@@H]1CCCN1S(=O)(=O)c1ccc(F)cc1 [Example 239, 1-(4-Fluoro-benzenesulfonyl)-pyrrolidine-2S-carboxylic acid {6-(3-chloro-phenyl)-2-[4-(2-fluoro-phenyl)-piperazin-1-yl]-pyrimidin-4-ylmethyl}-amide]
> 10000	Cc1c(Cl)cccc1S(=O)(=O)N1CCC[C@H]1C(=O)NCc1cc(-c2ccc(C(F)(F)F)cc2)nc(N2CCN(c3ccccc3F)CC2)n1 [Example 262, 1-(3-Chloro-2-methyl-benzenesulfonyl)-pyrrolidine-2S-carboxylic acid [2-[4-(2-fluoro-phenyl)-piperazin-1-yl]-6-(4-trifluoromethyl-phenyl)-pyrimidin-4-ylmethyl]-amide]
> 10000	COc1cccc(S(=O)(=O)N2CCC[C@H]2C(=O)NCc2cc(-c3ccc(C(F)(F)F)cc3)nc(N3CCN(c4ccccc4F)CC3)n2)c1 [Example 253, 1-(3-Methoxy-benzenesulfonyl)-pyrrolidine-2S-carboxylic acid [2-[4-(2-fluoro-phenyl)-piperazin-1-yl]-6-(4-trifluoromethyl-phenyl)-pyrimidin-4-ylmethyl]-amide]
22	O=C(NCc1cc(-c2ccc(C(F)(F)F)cc2)nc(-c2ccc(C(F)(F)F)cc2)n1)[C@@H]1CCCN1S(=O)(=O)c1ccc(F)cc1 [Example 285, 1-(4-Fluoro-benzenesulfonyl)-pyrrolidine-2S-carboxylic acid [2,6-bis-(4-trifluoromethyl-phenyl)-pyrimidin-4-ylmethyl]-amide]
115	O=C(NCc1cc(-c2ccc(OC(F)(F)F)cc2)nc(N2CCN(c3ccccc3F)CC2)n1)[C@@H]1CCCN1S(=O)(=O)c1ccc(F)cc1 [Example 226, 1-(4-Fluoro-benzenesulfonyl)-pyrrolidine-2S-carboxylic acid [2-[4-(2-fluoro-phenyl)-piperazin-1-yl]-6-(4-trifluoromethoxy-phenyl)-pyrimidin-4-ylmethyl]-amide]
